{"source": "patent US20260015322A1", "about": "“DELIVERY OF THERAPEUTIC ALKALOID COMPOUNDS” (priority 2022, published 2026)", "key": {"[1]": {"assay": "Hydrolysis Assay - Condition 1 (SGF)", "type": "physicochemical", "details": "Condition 1: SGF with pepsin pH 1.5, 37° C., 0.5 mM", "method": "50 uL of compound (10 mM) in DMSO was diluted into 950 uL of Simulated Gastric Fluid (SGF) with pepsin (pH 1.5) to a final concentration of 0.5 mM. The hydrolysis kinetics were conducted at 37° C. and measured by LCMS at a certain time interval.\n(§1) The corresponding LCMS chromatogram were recorded and the conversions were calculated by integration of each peak.\n(§2) • 1) LCMS spectra were obtained using Agilent 1200G1956A or SHIMADZU LCMS-2020. • Standard LCMS conditions were as follows (running time 1.55 minutes): • Acidic condition: Mobile Phase A: 0.0375% TFA in water (v/v). Mobile Phase B: 0.01875% TFA in acetonitrile (v/v); Column: Kinetex EVO C18 30*2.1 mm, 5 μm. • Basic condition: Mobile Phase A: 0.025% NH3·H2O in water (v/v). Mobile Phase B: Acetonitrile; Column: Kinetex EVO C18 2.1×30 mm, 5 μm. • 2) Conversion (%)=peak area 1/(peak area 1+peak area 2)*100%, peak area 1 is the integration of hydrolyzed product, peak area 2 is the integration of starting material."}, "[2]": {"assay": "Hydrolysis Assay - Condition 2 (DI Water)", "type": "physicochemical", "details": "25° C., 0.5 mM", "method": "50 uL of compound (10 mM) in DMSO was diluted into 950 uL of DI water to a final concentration of 0.5 mM. The hydrolysis kinetics were conducted at 25° C. and measured by LCMS at a certain time interval.\nas §1, §2"}, "[3]": {"assay": "Plasma Stability Assay (Example A2), mouse plasma", "type": "in vitro ADME", "details": "Mouse Plasma, 37° C., prodrug remaining", "method": "(§3) Each test was carried out in duplicate for each time point; 0 min, 15 min, 30 min, 60 min, 120, 240 min. […]"}, "[4]": {"assay": "Plasma Stability Assay (Example A2), human plasma", "type": "in vitro ADME", "details": "37° C., prodrug remaining", "method": "as §3"}, "[5]": {"assay": "Plasma Stability Assay (Example A3), rat plasma", "type": "in vitro ADME", "details": "10 μM, 37° C., prodrug remaining", "excerpt": "(§4) The data is represented in the table below."}, "[6]": {"assay": "Plasma Stability Assay (Example A3), human plasma", "type": "in vitro ADME", "details": "10 μM, 37° C., prodrug remaining", "excerpt": "as §4"}, "[7]": {"assay": "Metabolic Stability in Human Hepatocytes", "type": "in vitro ADME", "details": "cryopreserved human hepatocytes, 5×10^5 viable cells/mL, 37° C.", "method": "A 2.5 uL aliquot of 100 μM test compound was incubated with 247.5 uL of cryopreserved hepatocytes suspended in serum-free incubation medium at 5×10^5 viable cells/mL. The mixture was incubated at 37° C. and shaken at 500 rpm for the designated time points (0.5, 15, 30, 60, 90, or 120 min). At each time point, 25 μL aliquot of incubation mixture was transferred to 125 μL of cold acetonitrile containing internal standard, followed by centrifugation for 30 min at 3,220 g. 100 μL of supernatant was mixed with 100 μL of distilled water for analysis by LC-MS/MS. Peak areas were determined from extracted ion chromatograms and in vitro half-life (t1/2) was determined from the concentration vs time regression slope, in vitro t1/2=0.693/k. Conversion of the in vitro t1/2 (in min) into the in vitro intrinsic clearance (in vitro CLint, in μL/min/10^6 cells) is done using: in vitro CLint=kV/N."}, "[8]": {"assay": "in vivo", "type": "in vivo, male C57BL/6 mice", "details": "321 IV 2 mg/kg, mice", "method": "Total fifteen male mice were used in this study with n=3 mice/time point with sparse sampling study design. Animals were administered through intravenous route with solution formulation of 321 at 2 mg/kg dose.\nThe extraction procedure for plasma/brain samples and the spiked plasma/brain calibration standards were identical (PMSF Stabilized Plasma and Brain used for Preparation of calibration standards): A 20 μL of study sample plasma/brain or spiked plasma/brain calibration standard was added to individual pre-labeled micro-centrifuge tubes followed by 200 μL of internal standard prepared in acetonitrile (Rosuvastatin, 50 ng/mL) was added except for blank, where 200 μL of acetonitrile was added. Samples were vortexed for 5 minutes. Samples were centrifuged for 10 minutes at a speed of 4000 rpm at 4° C. Following centrifugation, 200 μL of clear supernatant was transferred in 96 well plates and analyzed using LC-MS/MS.\nBrain samples were diluted (1-part of tissue: 2-part of buffer) and homogenized. The homogenate was submitted for bioanalysis and the concentrations (ng/mL) received were corrected with dilution factor (3×) and the final reported concentrations were represented in ng/g.\nThe plasma and brain concentration-time data of 321 and 001 were used for the pharmacokinetic analysis."}, "[9]": {"details": "male, C57BL/6, mouse, in vivo, 321, read-out: Brain concentrations (mean)"}, "[10]": {"details": "male, C57BL/6, mouse, in vivo, 321, read-out: Plasma concentrations (mean)"}}, "note": "Where two headings read alike, the source gives them in different places.", "data": [{"smiles": "COc1ccc([C@@]23CCC(OP(=O)(OC(C)C)OC(C)C)=C[C@@H]2N(C)CC3)cc1OC", "note": "[Compound 321, [(3aS,7aS)-3a-(3,4-dimethoxyphenyl)-1-methyl-3,4,5,7a-tetrahydro-2H-indol-6-yl]diisopropyl phosphate]", "values": [{"measurement": "Conversion (%)", "setting": "[1]; 1 min", "result": 0, "unit": "%"}, {"measurement": "Conversion (%)", "setting": "[1]; 5 min", "result": 0, "unit": "%"}, {"measurement": "Conversion (%)", "setting": "[1]; 30 min", "result": 0, "unit": "%"}, {"measurement": "Conversion (%)", "setting": "[1]; 1 h", "result": 0, "unit": "%"}, {"measurement": "Conversion (%)", "setting": "[1]; 4 h", "result": 0, "unit": "%"}, {"measurement": "Conversion (%)", "setting": "[1]; 24 h", "result": 0, "unit": "%"}, {"measurement": "Conversion (%)", "setting": "[2]; 1 min", "result": 0, "unit": "%"}, {"measurement": "Conversion (%)", "setting": "[2]; 5 min", "result": 0, "unit": "%"}, {"measurement": "Conversion (%)", "setting": "[2]; 30 min", "result": 0, "unit": "%"}, {"measurement": "Conversion (%)", "setting": "[2]; 1 h", "result": 0, "unit": "%"}, {"measurement": "Conversion (%)", "setting": "[2]; 4 h", "result": 0, "unit": "%"}, {"measurement": "Conversion (%)", "setting": "[2]; 24 h", "result": 0, "unit": "%"}, {"measurement": "Prodrug (%)", "setting": "[3]; 0 min", "result": 100, "unit": "%"}, {"measurement": "Prodrug (%)", "setting": "[3]; 15 min", "result": 77.3, "unit": "%"}, {"measurement": "Prodrug (%)", "setting": "[3]; 30 min", "result": 74.5, "unit": "%"}, {"measurement": "Prodrug (%)", "setting": "[3]; 60 min", "result": 58.4, "unit": "%"}, {"measurement": "Prodrug (%)", "setting": "[3]; 120 min", "result": 43.1, "unit": "%"}, {"measurement": "Prodrug (%)", "setting": "[3]; 240 min", "result": 31.7, "unit": "%"}, {"measurement": "Prodrug (%)", "setting": "[4]; 0 min", "result": 100, "unit": "%"}, {"measurement": "Prodrug (%)", "setting": "[4]; 15 min", "result": ">99", "unit": "%"}, {"measurement": "Prodrug (%)", "setting": "[4]; 30 min", "result": ">99", "unit": "%"}, {"measurement": "Prodrug (%)", "setting": "[4]; 60 min", "result": ">99", "unit": "%"}, {"measurement": "Prodrug (%)", "setting": "[4]; 120 min", "result": ">99", "unit": "%"}, {"measurement": "Prodrug (%)", "setting": "[4]; 240 min", "result": 78.2, "unit": "%"}, {"measurement": "Prodrug (%)", "setting": "[5]; 0 min", "result": 100.0, "unit": "%"}, {"measurement": "Prodrug (%)", "setting": "[5]; 10 min", "result": 74.0, "unit": "%"}, {"measurement": "Prodrug (%)", "setting": "[5]; 30 min", "result": 69.8, "unit": "%"}, {"measurement": "Prodrug (%)", "setting": "[5]; 60 min", "result": 69.2, "unit": "%"}, {"measurement": "Prodrug (%)", "setting": "[5]; 120 min", "result": 68.4, "unit": "%"}, {"measurement": "Prodrug (%)", "setting": "[5]; 240 min", "result": 65.7, "unit": "%"}, {"measurement": "Prodrug (%)", "setting": "[6]; 0 min", "result": 100.0, "unit": "%"}, {"measurement": "Prodrug (%)", "setting": "[6]; 10 min", "result": ">99", "unit": "%"}, {"measurement": "Prodrug (%)", "setting": "[6]; 30 min", "result": ">99", "unit": "%"}, {"measurement": "Prodrug (%)", "setting": "[6]; 60 min", "result": 98.1, "unit": "%"}, {"measurement": "Prodrug (%)", "setting": "[6]; 120 min", "result": 94.5, "unit": "%"}, {"measurement": "Prodrug (%)", "setting": "[6]; 240 min", "result": 96.3, "unit": "%"}, {"measurement": "t1/2", "setting": "[7]", "result": 23, "unit": "min"}, {"measurement": "Brain-Kp", "setting": "[8]; 321", "result": 0.28}, {"measurement": "brain concentrations quantifiable up to", "setting": "[8]; 321", "result": "≤ 0.5", "unit": "h"}, {"measurement": "plasma concentrations quantifiable up to", "setting": "[8]; 321", "result": "up to 2 h"}, {"measurement": "T1/2", "setting": "[8]; 321 in Brain", "result": 6.6, "unit": "min"}, {"measurement": "Vss", "setting": "[8]; 321 in Brain", "result": 10.34, "unit": "L/kg"}, {"measurement": "CL", "setting": "[8]; 321 in Brain, marked NR (not reportable)", "result": "NR (1154.07) mL/min/kg"}, {"measurement": "AUClast", "setting": "[8]; 321 in Plasma", "result": 97.14, "unit": "ng·h/mL"}, {"measurement": "C0 (back extrapolated concentration)", "setting": "[8]; 321 in Plasma", "result": 503.64, "unit": "ng/mL"}, {"measurement": "CL", "setting": "[8]; 321 in Plasma", "result": 340.73, "unit": "mL/min/kg"}, {"measurement": "T1/2", "setting": "[8]; 321 in Plasma", "result": 21.6, "unit": "min"}, {"measurement": "Vss", "setting": "[8]; 321 in Plasma", "result": 4.80, "unit": "L/kg"}, {"measurement": "concentration at 0.08 h", "setting": "[8]; [9]", "result": 99.6, "unit": "ng/g"}, {"measurement": "concentration at 0.08 h", "setting": "[8]; [10]", "result": 305, "unit": "ng/mL"}, {"measurement": "concentration at 0.25 h", "setting": "[8]; [9]", "result": 37.1, "unit": "ng/g"}, {"measurement": "concentration at 0.25 h", "setting": "[8]; [10]", "result": 105, "unit": "ng/mL"}, {"measurement": "concentration at 0.5 h", "setting": "[8]; [9]", "result": 7.89, "unit": "ng/g"}, {"measurement": "concentration at 0.5 h", "setting": "[8]; [10]", "result": 26.2, "unit": "ng/mL"}, {"measurement": "concentration at 1 h", "setting": "[8]; male, C57BL/6, mouse, in vivo, 321, 1 h, read-out: Plasma concentrations (mean)", "result": 8.57, "unit": "ng/mL"}, {"measurement": "concentration at 2 h", "setting": "[8]; male, C57BL/6, mouse, in vivo, 321, 2 h, average of two values, read-out: Plasma concentrations (mean)", "result": 1.38, "unit": "ng/mL"}]}]}
